We go through 1 compound from patent publication US11590117B2, “Treatment of a hematologic malignancy with 2-(4-chlorophenyl)-n-((2-(2,6-dioxopiperidin-3-yl)-1-oxoisoindolin-5-yl)methyl)-2,2-difluoroacetamide” (priority 2016, dated 2023).

The IC50 is the point on the concentration scale where inhibition reaches its midpoint.

One experiment relates to BL-41. Kind of experiment: CellTiter-Glo (CTG) cell proliferation assay, 72 hours. The class given is cell-based. The conditions noted are these: Homo sapiens, Burkitt Lymphoma. As for the experimental part:
(§1) Preparation of Solutions of Test Article: Compounds were plated into black 384-well plates (Corning Inc.) to a final DMSO volume of 0.1% assuming a maximal volume of 50 μL. A 10-point dose response starting at 10 μM with a 1:3 dilution was printed in duplicate by acoustic dispense using the EDC ATS-100 platform.
(§2) Cell Proliferation Assays: The effect of Compound 1 on the proliferation/viability of the hematological cell lines (Table 1 Table, Table 2 and Table 3), THLE-2, or PBMCs was assessed after 72 hours incubation using CTG (Promega), according to manufacturer's instructions. Hematological cell lines were dispensed into compound plates by a Multidrop™ Combi Reagent Dispenser (Thermo Scientific, Waltham, Mass.) at a concentration of 0.1 to 0.3×10^6 cells per mL in a 50 μL total volume. THLE-2 cells were seeded out at 1000 cells per well in 50 μL volume and incubated for 72 hours. At 72 hours, 25 μL per well of CTG was dispensed by a Multidrop™ Combi Reagent Dispenser and adenosine triphosphate (ATP) release by viable cells was measured as relative luminescence units after 30 minutes using the Envision platform.
(In ATP-based viability assays light output follows the ATP content of the culture.)

The subject of the next experiment is BL-70. The description is as above. The class given is cell-based. The conditions noted are these: Homo sapiens, Burkitt Lymphoma. Here is the method: as §1, §2
Another experiment concerns Blue-1. The experiment is described as above. The experiment is classed as cell-based. Conditions: Homo sapiens, Burkitt Lymphoma. As for the experimental part: as §1, §2
Another experiment has as its system DG-75. Described as above. The experiment is classed as cell-based. Conditions: Homo sapiens, Burkitt Lymphoma. Here is the method:
as §1, §2

The next experiment has as its system Daudi. Described as above. The class given is cell-based. The conditions noted are these: Homo sapiens, Burkitt Lymphoma. As for the experimental part: as §1, §2
The next experiment has as its system EB-1. The experiment is described as above. The conditions noted are these: Homo sapiens, EB1, Burkitt Lymphoma. The experiment is classed as cell-based. Here is the method: as §1, §2
The test system of another experiment is HS-Sultan. The description is as above. The conditions noted are these: Homo sapiens, Burkitt Lymphoma. The experiment is classed as cell-based. Here is the method: as §1, §2
The test system of another experiment is Karpas 231. Described as above. The conditions noted are these: Homo sapiens, Acute Lymphoblastic Leukemia. The experiment is classed as cell-based. As for the experimental part:
as §1, §2

The subject of another experiment is Karpas 299. The experiment is described as above. The experiment is classed as cell-based. The conditions noted are these: Homo sapiens, Anaplastic Large Cell Lymphoma. As for the experimental part:
as §1, §2

The test system of the next experiment is MC-116. Described as above. The class given is cell-based. Conditions: Homo sapiens, MC116, Acute Lymphoblastic Leukemia. As for the experimental part:
as §1, §2

Another experiment relates to Namalwa. Described as above. The class given is cell-based. Conditions: Homo sapiens, Burkitt Lymphoma. Here is the method:
as §1, §2

For another experiment, the system named is OCI-LY-10. The description is as above. The experiment is classed as cell-based. The conditions noted are these: Homo sapiens, OCI-Ly10, Diffuse Large B-cell Lymphoma (activated B-cell like). As for the experimental part:
as §1, §2

A further experiment concerns RC-K8. The description is as above. The experiment is classed as cell-based. Conditions: Homo sapiens, RCK8, Diffuse Large B-cell Lymphoma (activated B-cell like). Here is the method: as §1, §2
The test system of another experiment is Raji. Described as above. Conditions: Homo sapiens, Burkitt Lymphoma. The class given is cell-based. As for the experimental part: as §1, §2
For a further experiment, the system named is Ramos. The experiment is described as above. The conditions noted are these: Homo sapiens, Burkitt Lymphoma. The class given is cell-based. Here is the method: as §1, §2
A further experiment relates to SR. The experiment is described as above. The class given is cell-based. The conditions noted are these: Homo sapiens, Acute Lymphoblastic Leukemia. Here is the method:
as §1, §2

In the next experiment the test system is U2932. Described as above. The experiment is classed as cell-based. The conditions noted are these: Homo sapiens, Diffuse Large B-cell Lymphoma (activated B-cell like). As for the experimental part: as §1, §2
The subject of the next experiment is THLE-2. Kind of experiment: CellTiter-Glo (CTG) cell proliferation assay, 72 hours, counter-screen. The experiment is classed as cell-based, human. Here is the method: as §1, §2
In order to calculate the therapeutic window for Compound 1, the compound was counter-screened against the immortalized (but non-tumorigenic) human hepatocyte-derived cell line THLE-2 (Pfeifer, et al, Proc Natl Acad Sci USA 1993 90(11):5123-5127) and against primary human PBMCs. […] The Compound 1 therapeutic window for the 10 sensitive AML cell lines as compared to THLE-2 cells ranged from 4.1 (KG-1a) to 57 (HNT-34) (method 1) or from 5.7 (KG-1a) to 79.5 (HNT-34) (method 2); the Compound 1 therapeutic window as compared to PBMCs ranged from 2.6 (KG-1a) to 36 (HNT-34)), or from 1.5 (KG-1a) to 21 (HNT-34) (Table 6).
Cultures of 11 different AML cell lines were incubated 72 hours with Compound 1 at concentrations of 0.5 nM to 10 μM. Proliferation was assessed using the CellTitre-Glo® assay. Results for cultures incubated with Compound 1 were normalized to results for control cultures for each cell line. […]

In a further experiment the test system is HL-60 human AML cells. Briefly: HL-60 IV AML xenograft model, survival study. The class given is in vivo, SCID mice. Here is the method:
In this study, Compound 1 antitumor activity in the HL-60 IV AML xenograft model was studies. In this model, HL-60 human AML cells engraft in host BM and internal organs (eg, spleen, liver) and animals develop progressive peripheral leukocytosis. Female severe combined immunodeficiency (SCID) mice were inoculated with HL-60 cells by tail vein injection. To understand the effect of Compound 1 on the xenografted HL-60 cells, animals were dosed intraperitoneal (IP) with vehicle or Compound 1 (0.5, 1, 2.5, and 5 mg/kg) once daily (QD)×5 between Weeks 3 and 4 post-engraftment (AP6516, survival study) or animals were dosed IP twice daily (BID) with vehicle or Compound 1 for 5 or 10 consecutive days (5 mg/kg BID×5 or 2.5 mg/kg, BID×10) between Weeks 6 and 8 post-engraftment (Study AP6982, % human CD33+[hCD33+] cells in BM).
Tumor burden from the peripheral blood of HL-60-bearing animals was assessed by fluorescence-activated cell sorting (FACS) at Week 7 post-tumor cell inoculation. […] Mice from the vehicle control and Compound 1 treatment groups succumbed to disease burden starting on Day 54 for the vehicle control group and between Day 51 and Day 57 for the Compound 1 treatment groups. […] One mouse (1/8) from the 2.5 mg/kg Compound 1-treated group survived to study termination on Day 162.

[1] abbreviates: THLE-2 normal cells, 0.1 nM to 100 μM.

A value given as a limit tells only on which side of the number the result lay.

In the case of `O=C1CCC(N2Cc3cc(CNC(=O)C(F)(F)c4ccc(Cl)cc4)ccc3C2=O)C(=O)N1` (centres unmarked) [Compound 1, 2-(4-chlorophenyl)-N-((2-(2,6-dioxopiperidin-3-yl)-1-oxoisoindolin-5-yl)methyl)-2,2-difluoroacetamide], the IC50 in the experiment with BL-41 is more than 10000 nM; in the experiment on BL-70 it was 347 nM; in the experiment with Blue-1, 986 nM; with DG-75, more than 10000 nM; in the experiment on Daudi it was 393 nM; with EB-1 it was 66.3 nM. Besides, the IC50 in the experiment with HS-Sultan was more than 10000 nM; in the experiment on Karpas 231, 790 nM; in the experiment with Karpas 299, more than 10000 nM; in the experiment on MC-116, more than 10000 nM; in the experiment with Namalwa, 74.6 nM; in the experiment on OCI-LY-10, more than 10000 nM. For the same compound, the IC50 in the experiment with RC-K8 was 956 nM; in the experiment on Raji, more than 10000 nM; in the experiment with Ramos, more than 10000 nM; in the experiment on SR, more than 10000 nM; in the experiment with U2932, 904 nM; in the experiment with THLE-2 (Homo sapiens, THLE-2, 72 h, THLE-2 non-tumorigenic human hepatocyte-derived cell line, 72 hours, read-out: antiproliferative IC50), 10000 nM. In addition, the “AUC Method 1” value in the experiment with THLE-2 (setting [1]) turned out to be 393.0 arbitrary units. The “AUC Method 2” value in the experiment on THLE-2 (setting [1]) is given as 549.1 arbitrary units. Besides, the “mice surviving to study termination on Day 162” value in the experiment on HL-60 human AML cells (2.5 mg/kg group) is on record as 1/8. Also, the overall survival result in the experiment with HL-60 human AML cells (0.5, 1, 2.5, 5 mg/kg IP QD×5 between Weeks 3 and 4 post-engraftment) is “No overall survival benefit”. In addition, in the experiment on HL-60 human AML cells (Week 7 post-tumor cell inoculation, 0.5, 1, 2.5, 5 mg/kg IP QD×5, vs vehicle), the “tumor burden from peripheral blood (FACS)” value is reported as “No effect”.
